Source: patent publication US11020360B2, “Methods, compounds, compositions and vehicles for delivering 3-amino-1-propanesulfonic acid” (Bellus Health, Inc., priority 2006, dated 2021)

Experiments:
[1] = Metabolic profiling of 14C-3APS in dogs; format: in vivo, male Beagle dogs; settings: Dog plasma
Method: Three single dose studies were conducted in mice, rats and dogs to determine the metabolic profile of ^14C-3APS in plasma, urine and feces. In the first study, twenty-seven male CD-1 mice received a single dose of 100 mg/kg (20 μCi/animal) of ^14C-3APS by oral gavage. Blood samples (3 animals/time point) were collected for 12 hr following drug administration while urine and feces (3 animals/time point) samples were collected for 96 hr. In the second study, eight male Sprague-Dawley rats received a single dose of 100 mg/kg (50 μCi/animal) of ^14C-3APS by oral gavage while in the third study, three male Beagle dogs received a single dose of 100 mg/kg (30 μCi/kg) of ^14C-3APS by oral gavage. For the rat and dog studies, blood samples were collected for 24 hr following drug administration while urine and feces samples were collected for 72 hr. All samples were analyzed for total radioactivity using appropriate sample preparation procedures and scintillation counting. Plasma and urine samples were also analyzed for 3APS and 3APS metabolites (2-carboxyethanesulfonic acid, 3-hydroxy-1-propanesulfonic acid and 3-acetylamino-1-propanesulfonic acid) concentrations using qualified HPLC and MS/MS methods.

human hepatocyte (HepG2) = assay: Incubation of 3APS in human hepatocyte (HepG2) culture media; format: in vitro ADME; settings: after incubation of 3APS in HepG2 culture media
Method: In another in vitro model employing organotypic hippocampal slice culture, the conversion of 3APS to 2-carboxyethanesulfonic acid was time-dependent. More than 60% of 3APS was converted to 2-carboxyethanesulfonic acid after 3-day incubation in the culture media. 2-carboxyethanesulfonic acid was also detected after incubation of 3APS in human hepatocyte (HepG2) culture media.

[2] = analyte after single oral 100 mg/kg 14C-3APS
[3] = male, Beagle, dog, plasma, po, 100 mg/kg, analyte after single oral 100 mg/kg 14C-3APS

AUC0-τ [1, 2]: 24.5 µmol·min/mL | AUC∞ [1, 2]: 25.3 µmol·min/mL | T1/2 ([1]; analyte after single oral 100 mg/kg 14C-3APS, 100 mg/kg): 5.04 h | Tmax [1, 3]: ~0.5 h | half-life [1, 3]: ~5 h | Cmax ([1]; male, Beagle, analyte (3APS or metabolite) after single oral 100 mg/kg 14C-3APS): 250 µM | formation of 2-carboxyethanesulfonic acid (human hepatocyte (HepG2)): detected
Compound: NCCCS(=O)(=O)O [Compound 3APS, 3-amino-1-propanesulfonic acid]
